According to patent US8822452B2, “Inhibitor compounds of 11-beta-hydroxysteroid dehydrogenase type 1” (Laboratorios Salvat, S.A., priority 2009, dated 2014):
Values joined by “and” are separate entries in the source; they are usually repeats but may differ in a detail not shown here. Equal values may be shown once.

Legend:
11-beta-HSD1 = biological target: T1, 11-beta-HSD1 (Homo sapiens, UniProt P28845); test: Inhibitory activity of 11-beta-HSD1 in the microsomal fraction of transfected HEK293 cells (SPA, [3H]-cortisone); format: biochemical; conditions: microsomes of HEK-293 cells transfected with 11-beta-HSD1
T1 construct: expressed in transfected cells; host or cells: HEK-293 cells, stably transfected; microsome preparation
T1 sequence (P28845 whole entry): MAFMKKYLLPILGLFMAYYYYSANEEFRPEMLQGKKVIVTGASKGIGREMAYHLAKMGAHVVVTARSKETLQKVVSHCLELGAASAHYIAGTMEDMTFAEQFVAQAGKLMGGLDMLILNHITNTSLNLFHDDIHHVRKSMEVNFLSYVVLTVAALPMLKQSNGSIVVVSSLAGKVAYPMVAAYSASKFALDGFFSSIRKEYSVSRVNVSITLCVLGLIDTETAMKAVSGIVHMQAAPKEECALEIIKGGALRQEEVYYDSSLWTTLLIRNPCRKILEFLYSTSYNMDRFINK
Method: Determination of the Inhibitory Activity of 11-Beta-HSD1 in the Microsomal Fraction of Transfected HEK293 Cells
99 μL of a reaction mixture which contained 80 nM [^3H]-cortisone, 1 mM NADPH and 40 μg/mL of the microsome preparations of HEK-293 cells stably transfected with the 11-beta-HSD1 clone, dissolved in assay buffer (50 mM HEPES, 100 mM KCl, 5 mM NaCl, 2 mM MgCl2/100 mL H2O) were added to a 96-well plate. The inhibitors to be analyzed were dissolved in 100% DMSO, and the final concentration in the reaction was 1%.
The reaction mixture was incubated for 2 hours at 37° C. under stirring. The total reaction volume per well was 100 μL. The stop solution (5 mg/mL ProteinA Spa bead, Superblock Blocking Buffer, 30 μM glycyrrhetinic acid, 1 μg/mL anticortisol monoclonal antibody) was simultaneously prepared, being incubated under stirring for two hours at rt and protected from light. Once the two hours lapsed, 50 μL of the stop solution were dispensed to each well in the reaction plate and was left to incubate for two hours at rt under stirring and protected from light. Once the second incubation ended, the plate was read in a 1450 Microbeta Tritalux (Wallac®) scintillation counter for 30 seconds per well.

11-beta-HSD2 = biological target: T2, 11-beta-HSD2 (Homo sapiens, UniProt P80365); test: Inhibitory activity of 11-beta-HSD2 in the microsomal fraction of transfected HEK293 cells (SPA, [3H]-cortisol); format: biochemical; conditions: for inhibition at 10 µM: microsomes of HEK-293 cells transfected with 11-beta-HSD2
T2 construct: expressed in transfected cells; host or cells: HEK-293 cells, stably transfected; microsome preparation
T2 sequence (P80365 1-405): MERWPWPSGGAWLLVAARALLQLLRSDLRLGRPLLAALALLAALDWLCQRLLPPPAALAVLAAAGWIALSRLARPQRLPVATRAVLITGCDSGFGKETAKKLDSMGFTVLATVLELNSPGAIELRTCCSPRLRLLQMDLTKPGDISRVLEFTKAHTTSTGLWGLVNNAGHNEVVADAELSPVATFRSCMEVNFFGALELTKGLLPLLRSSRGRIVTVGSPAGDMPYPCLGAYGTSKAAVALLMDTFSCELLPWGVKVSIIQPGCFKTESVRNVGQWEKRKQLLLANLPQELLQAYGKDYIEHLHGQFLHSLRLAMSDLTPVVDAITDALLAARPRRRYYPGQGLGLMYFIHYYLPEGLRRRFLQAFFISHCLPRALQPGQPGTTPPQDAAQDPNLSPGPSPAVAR
Method: Determination of the Inhibitory Activity of 11-Beta-HSD2 in the Microsomal Fraction of Transfected HEK293 Cells
59 μL of the reaction mixture were added to a 96-well plate. This contained 1 mM NAD^+ and 80 μg/mL of the microsome preparations of HEK-293 cells stably transfected with the 11-beta-HSD2 clone, dissolved in assay buffer (50 mM HEPES, 100 mM KCl, 5 mM NaCl, 2 mM MgCl2/100 mL H2O). The inhibitors to be analyzed were dissolved in 100% DMSO, and the final concentration in the reaction was 1%. The reaction mixture was pre-incubated for 30 minutes at 37° C. under stirring. 40 μL of the reaction substrate, 3.2 nM [^3H]-cortisol dissolved in assay buffer were added. It was incubated at 37° C. for two hours under stirring. The stop solution was simultaneously prepared, being incubated for two hours at rt and protected from light. After this time 50 μL of the stop solution were added to end the reaction, and it was incubated for two hours at rt under stirring and protected from light. The signal emitted by SPA beads-cortisol complex was measured in the 1450 Microbeta Tritalux (Wallac®) scintillation counter for 30 seconds per well. This case measures the binding to the substrate, and not to the product as in the assay for the type 1 isoenzyme.

[1] = Acute glaucoma model: glucose-induced ocular hypertension in rabbit (IOP); format: in vivo, Chinchilla Bastard rabbits; conditions: for Glucose-induced Hypertension Ratio Inhibitor/Timolol: 0.5% suspension versus Timolol maleate solution 0.5%; for Glucose-induced Hypertension % Inhibition: eye instillation of 0.5% suspension 15 minutes before 5% glucose bolus 20 ml/kg
Method: In Vivo Efficacy of 11beta-HSD1 Inhibitors
In vivo efficacy of 11beta-HSD1 inhibitors was evaluated in an acute glaucoma model based on a glucose-induced ocular hypertension model in rabbit.
Male Chinchilla Bastard rabbits (1.5-2.5 kg) were obtained from Charles River (Germany) and were kept under controlled environmental conditions (12-hour light/12-hour dark cycle) with food and drinking water ad libitum. Animals were treated in accordance with the ARVO Statement for the Use of Animals in Ophthalmic and Vision Research.
In order to measure intraocular pressure (IOP) according to the glucose-induced ocular hypertension model, rabbits were restrained and basal IOP was determined using a Tonolab tonometer (Tiolat Oy) at least 1 hour after initial immobilization. Acute ocular hypertension was induced by a bolus of 5% glucose solution at 20 ml/kg into the marginal ear vein and IOP was determined 5, 10, 20, 30 and 40 minutes later. Eye treatment instillation was performed 15 minutes before the hypertension induction and both eyes of each animal were instilled with the same solution, either the vehicle, the 11beta-HSD1 inhibitor suspension at 0.5% or Timolol maleate solution at 0.5% as a positive control.

inhibition at 10 µM (11-beta-HSD1)	inhibition at 10 µM (11-beta-HSD2)	% Inhibition (10 μM) 11-beta-HSD2 (11-beta-HSD2; microsomes of HEK-293 cells transfected with 11-beta-HSD2, 10 µM)	SMILES	Glucose-induced Hypertension Ratio Inhibitor/Timolol [1]	Glucose-induced Hypertension % Inhibition [1]
100%	0%	–	O=C(CCCC(=O)N1CCCC2CCCCC21)NCCc1ccccc1 (centres unmarked) [Ia.59, 5-(octahydroquinolin-1-yl)-5-oxopentanoic acid phenethylamide]	–	–
93%	0%	–	O=C(CCCC(=O)N1CCCC2CCCCC21)NCc1ccccc1 (centres unmarked) [Ia.61, 5-(octahydroquinolin-1-yl)-5-oxopentanoic acid benzylamide]	–	–
100%	6%	–	CN(Cc1cccc2ccccc12)C(=O)CCCC(=O)N1CCCC2CCCCC21 (centres unmarked) [Ia.66, 5-(octahydroquinolin-1-yl)-5-oxopentanoic acid methylnaphthalen-1-ylmethylamide]	–	–
–	–	–	O=C(CCCCC(=O)N1CCCC2CCCCC21)NC1C2CC3CC(C2)CC1C3 (centres unmarked) [Ia.96, 6-(octahydroquinolin-1-yl)-6-oxohexanoic acid tricyclo[3.3.1.1^3,7]decan-2-ylamide]	0.84	46%
–	–	–	O=C(CCCC(=O)N1CCCC2CCCCC21)NCCc1cccc(F)c1 (centres unmarked) [Ia.198, 5-(octahydroquinolin-1-yl)-5-oxopentanoic acid N-(3-fluorophenethyl)amide]	0.65	41%
–	–	–	O=C(CCCC(=O)N1CCCC2CCCCC21)NC1CCCc2ccccc21 (centres unmarked) [Ia.224, 5-(octahydroquinolin-1-yl)-5-oxopentanoic acid N-(1,2,3,4-tetrahydronaphthalen-1-yl)amide]	0.25	16%
100%	–	0% and 5%	CN(Cc1cccc2ccccc12)C(=O)CCCNC(=O)N1CCCC2CCCCC21 (centres unmarked) [Ib.8, Octahydroquinoline-1-carboxylic acid [3-(methylnaphthalen-1-ylmethylcarbamoyl)propyl]amide]	–	–
100%	10%	–	O=C(CCCNC(=O)N1CCCC2CCCCC21)N1CCC2CCCCC2C1 (centres unmarked) [Ib.18, Octahydroquinoline-1-carboxylic acid [4-(octahydroisoquinolin-2-yl)-4-oxobutyl]amide]	–	–
100%	13%	–	CN(Cc1cccc2ccccc12)C(=O)CCCNC(=O)N1CCC2CCCCC2C1 (centres unmarked) [Ib.80, Octahydroisoquinoline-2-carboxylic acid [3-(methylnaphthalen-1-ylmethylcarbamoyl)propyl]amide]	–	–
100%	0%	–	O=C(NCCC(=O)N1CCCC2CCCCC21)c1cc2ccccc2cn1 (centres unmarked) [Id.6, Isoquinoline-3-carboxylic acid [3-(octahydroquinolin-1-yl)-3-oxopropyl]amide]	–	–
100%	0%	–	O=C(NCCC(=O)N1CCCC2CCCCC21)c1ccc2ccccc2n1 (centres unmarked) [Id.12, Quinoline-2-carboxylic acid[3-(octahydroquinolin-1-yl)-3-oxopropyl]amide]	0.87	50%
100%	0%	–	O=C1c2ccccc2C(=O)N1CCCCC(=O)N1CCCC2CCCCC21 (centres unmarked) [If.1, 2-(5-(octahydroquinolin-1-yl)-5-oxopentyl)isoindoline-1,3-dione]	0.90	51%
100%	4%	–	O=C(CCCCN1C(=O)c2ccccc2C1=O)N1CCC2CCCCC2C1 (centres unmarked) [If.8, 2-(5-(octahydroisoquinolin-2-yl)-5-oxopentyl) isoindoline-1,3-dione]	–	–
100%	6%	–	O=C1c2ccc(F)cc2C(=O)N1CCCCC(=O)N1CCCC2CCCCC21 (centres unmarked) [Ik.25, 5-fluoro-2-[5-(octahydroquinolin-1-yl)-5-oxopentyl]isoindole-1,3-dione]	–	–
